Measured values: article PMC8757511 (ACS Medicinal Chemistry Letters, 2021)
pIC50, pKd, pKi: −log10 of the molar value. Values after ≈ are worked out from the molar mass of the structure shown.

Legend:
Cdk2-Cyclin A = Cdk2-Cyclin A (Homo sapiens, UniProt P24941); assay: biochemical; type: biochemical
[1] = test system: M. tuberculosis strain, H37Ra (ATCC 25177); assay: microbe, parasite or virus in culture; type: cell-based, Mycobacterium tuberculosis; conditions: for MIC: Mycobacterium tuberculosis, ATCC25177|H37RA, read-out: Mtb MIC
[2] = test system: Zebrafish (Danio rerio) embryos; conditions: 5 days
[3] = test system: 453 human kinases (403 wild-type and 50 mutant); type: binding; conditions: 10 μM, KinomeSCAN
PknB [4] = molecular target: T1, PknB (Mycobacterium tuberculosis, UniProt P9WI81); type: binding; conditions: DiscoverX Kd
Target sequence in this assay (P9WI81 whole entry): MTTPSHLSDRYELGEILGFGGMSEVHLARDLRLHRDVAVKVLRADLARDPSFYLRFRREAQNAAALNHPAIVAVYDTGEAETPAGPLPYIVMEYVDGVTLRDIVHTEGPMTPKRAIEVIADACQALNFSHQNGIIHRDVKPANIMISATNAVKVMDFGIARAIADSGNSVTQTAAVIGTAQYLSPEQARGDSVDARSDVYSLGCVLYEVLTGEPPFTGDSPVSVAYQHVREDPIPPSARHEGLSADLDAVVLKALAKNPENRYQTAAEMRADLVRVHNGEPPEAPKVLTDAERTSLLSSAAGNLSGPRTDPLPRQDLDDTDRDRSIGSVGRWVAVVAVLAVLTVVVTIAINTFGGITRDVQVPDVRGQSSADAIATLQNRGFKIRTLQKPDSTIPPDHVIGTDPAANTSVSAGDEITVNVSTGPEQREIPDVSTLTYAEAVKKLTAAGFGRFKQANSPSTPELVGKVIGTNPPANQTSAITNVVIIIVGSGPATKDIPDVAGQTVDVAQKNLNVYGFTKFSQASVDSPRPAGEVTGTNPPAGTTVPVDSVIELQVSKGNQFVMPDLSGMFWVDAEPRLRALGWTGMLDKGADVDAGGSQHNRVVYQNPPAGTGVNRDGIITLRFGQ

[5] = test system: THP-1 human macrophage cell line
PknB [6] = molecular target: T1, PknB; assay: biochemical; type: biochemical
Target sequence in this assay (P9WI81 1-331 limits assumed): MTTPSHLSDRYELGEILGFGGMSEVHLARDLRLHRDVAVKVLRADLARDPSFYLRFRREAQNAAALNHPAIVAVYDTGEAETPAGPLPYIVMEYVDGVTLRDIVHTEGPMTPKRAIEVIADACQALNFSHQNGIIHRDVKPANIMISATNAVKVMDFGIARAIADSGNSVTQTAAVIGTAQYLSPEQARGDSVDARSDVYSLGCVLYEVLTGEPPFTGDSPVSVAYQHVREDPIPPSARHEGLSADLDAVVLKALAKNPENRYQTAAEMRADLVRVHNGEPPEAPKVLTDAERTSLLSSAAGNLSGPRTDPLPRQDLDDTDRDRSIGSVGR

physchem = conditions: pH 7.4, LogD7.4, pH 7.4
PknB [7] = molecular target: T1, PknB; assay: biochemical; type: binding
Target sequence in this assay (P9WI81 1-331 limits assumed): as above

Compound	reduction in Cdk2 biochemical inhibition relative to 1 (Cdk2-Cyclin A)	MIC [1] [µM]	% D. rario survival @ 5 μM [2] [%]	other results
CN1CCN(c2ccc(Nc3nccc(-c4ccc(Cl)cc4)n3)cc2C(F)(F)F)CC1 [Compound 11]	greater than 28 fold	–	–	–
CN1CCN(c2ccc(Nc3nccc(-c4cccnc4)n3)cc2C(F)(F)F)CC1 [Compound 4]	–	–	–	worse Mtb MIC than 1 [1]: 2–4 fold
Cc1ccc(-c2ccnc(Nc3ccc(N4CCN(C)CC4)c(C(F)(F)F)c3)n2)cc1 [Compound 12]	greater than 28 fold	≤ 19	0	–
CN1CCN(c2ccc(Nc3nccc(-c4cccc([N+](=O)[O-])c4)n3)cc2C(F)(F)F)CC1 [Compound 19]	–	≤ 19	0	selectivity score (S-score) at 1% of control (S(1)) [3]: 0.12; affinity for PknB vs GSK3β, mTOR, and Pim1 (PknB [4]): > 100 fold
CN1CCN(c2ccc(Nc3nccc(-c4ccccc4)n3)cc2C(F)(F)F)CC1 [Compound 9]	greater than 28 fold	–	~100	selectivity score (S-score) at 1% of control (S(1)) [3]: 0.084
CN1CCN(c2ccc(Nc3nccc(-c4cccc(Cl)c4)n3)cc2C(F)(F)F)CC1 [Compound 16]	greater than 28 fold	≤ 19	–	improvement in cytotoxicity over 1 ([5]; THP-1, relative to 1): > 2 log unit
CN1CCN(c2ccc(Nc3nccc(-c4ccnc(Cl)c4)n3)cc2C(F)(F)F)CC1 [Compound 6]	–	–	~100	–
CNc1cc(-c2ccnc(Nc3ccc(N4CCN(C)CC4)c(C(F)(F)F)c3)n2)ccn1 [Compound 8]	28 fold	–	–	loss of PknB activity relative to 1 (PknB [6]; relative to 1): 6 fold
CN1CCN(c2ccc(Nc3nccc(-c4ccc5ccccc5c4)n3)cc2C(F)(F)F)CC1 [Compound 20]	–	–	~100	improvement in THP-1 cytotoxicity relative to 1 ([5]; relative to 1): > 60 fold; lower MIC than inhibitor 19 [1]: 2 fold; loss in PknB activity relative to 19 (PknB [6]): 3 fold
CN1CCN(c2ccc(Nc3nccc(-c4ccncc4)n3)cc2C(F)(F)F)CC1 [Compound 5]	–	50 (≈ 20.7 µg/mL)	30	logD (physchem): 3.57; pIC50 (Cdk2-Cyclin A): 5.34; worse Mtb MIC than 1 [1]: 2–4 fold; pKd (PknB [7]): 7.11; pIC50 (PknB [6]): 5.68; pKi (PknB [6]): 6.24
